Measured values published in patent US6117859A, “Method of relieving chronic inflammation by using 5-alkylsulfonylsalicylanilides” (The Research Foundation of State University of New York, priority 1999, dated 2000).

Tests used:
myeloperoxidase (MPO) = test: Myeloperoxidase (MPO) activity in ear biopsies, acute TPA mouse ear assay; format: in vivo
Excerpt: The anti-inflammatory effect of selected compounds of this invention were compared to those of Triclosan™ and hydrocortisone in a modified […] (TPA) mouse ear inflammation assay. TPA was used as an inflammogen rather than croton oil because TPA gives a well characterized inflammatory response at very low concentrations. […] This model can therefore be used to study the pharmacokinetics, clinical efficacy and adverse side effects of anti-inflammatory agents. To quantitate inflammation, ear punches from treated animals were used to measure increased ear mass (edema) and myeloperoxidase (MPO) activity. For the inhibition studies, ear biopsies were weighed six hours after treatment with TPA and the simultaneous application of the compound of the present invention. All the compounds were diluted in acetone. Following this, the biopsies were frozen and subsequently used to measure inhibition of MPO activity, an estimate of polymorphonuclear (PMN) […] activity in the affected area. Percent inhibition of edema was calculated as [c-t]/c x 100, where c and t are increases in ear weight in control and treated mice, respectively.
As a confirmation of the anti-inflammatory activity and in an attempt to further define the mechanism of inhibition produced by the alkylsulfonylsalicylanilides, MPO activity was measured in representative ear biopsies. The enzyme was extracted from the tissue by using a combination of homogenization in the presence of a detergent, freezing and thawing, and sonication. The change in absorbance was measured with time using o-dianisidine and H2 O2 as the substrate in an automated plate reader. As shown below, TPA-induced increase in MPO was inhibited in TMF-12 treated ears at a dose approximately 10-fold less than that which inhibited edema.

[1] = Solubility of representative compounds in various solvent systems; format: physicochemical
Protocol: The solubility of representative compounds of this invention in various solvent systems was determined. The solvents included ethanol, propylene glycol, SLS, Tween 80™ and combinations thereof.

[2] = Single dose oral tolerance in rats; format: in vivo, rat (male weaning Sprague-Dawley); settings: single dose 2.5 or 0.75 g/kg in 5% CMC, 7 days
Protocol: To test for tolerance of the administered compounds, male weaning Sprague-Dawley rats were fed in a single dose of 2.5 or 0.75 g/kg of TMF-12, TMF-10, TMC-10 or TPC-10 in 5% carboxymethyl cellulose (CMC) or CMC alone. […] At completion of the 7 day observation period, necropsies were performed on all animals.

[3] = system: TPA treated mouse ear skin; test: Histopathology of ear biopsies after multiple doses of TPA (epidermal thickness, dermal cellularity); format: in vivo, mouse (female CD-1)
Protocol: The assay used female CD-1 mice (7-9 weeks of age). Following a 2-week quarantine, mice were randomly assigned to test groups (5 mice/groups). TPA (10 uL of 0.01 TPA in acetone) was administered to both the inner and outer surface of each ear (2μg/ear) on day 0,2,4,7, and 9 on protocol. On Day 7,8 and 9, two applications of test article were applied to each ear 2 and 4 hours after dosing with TPA. The test articles were administered in 10 uL aliquots to both the inner and outer surface of each ear (20 μl total/dose). The candidate drugs were tested at several different concentrations (e.g., 5, 1.25, and 0.125 mg/ear) to determine a maximum effective dose within a range that could be effectively applied. Hydrocortisone-17-valerate (HCV, 20μg/ear) was employed as a positive control. Mice were sacrificed at Day 10 on protocol and uniform punch biopsies (approximately 8 mm dia.) were taken from each ear. While on protocol, dermal irritation was scored semiquantitatively at Day 1,3,5,8, and 10.
Inhibition of TPA stimulated increased ear weight was used as an initial measure of efficacy for all of the agents tested. One biopsy from each mouse was also quick frozen and stored at -70° C. for later assay of myleoperoxidase, an enzyme associated with infiltrating PMN, or other measure of efficacy. The remaining biopsy from each mouse treated with Trifluorosal or HCV was fixed in formalin and processed for histopathologic evaluation, including measurement of cellular infiltration (PMNs, endothelial cells, macrophages) and epidermal thickness at 20 random sites along the length of the specimen.
In order to confirm the subjective observations, quantitative determinations of 3 parameters (epidermal thickness, dermal thickness, and dermal cellularity) in the skin of negative controls (acetone), positive controls (TPA), and TPA treated skin treated with 3 doses of test article (Trifluorosal) and hydrocortisone were carried out. Epidermal thickness reflects the reactive proliferative activity induced by TPA in the […]: dermal thickness reflects primarily Ad edema but may also be affected by other phenomena, such as formation of granulation tissue, collagen synthesis, the activity of myofibroblasts, etc. Cellularity of the dermis is frequently used as a surrogate marker of inflammatory changes in the dermis.
Determination of the epidermal thickness was performed under the microscope with a calibrated scale placed in the eyepiece. Ten determinations were carried out in the epidermis covering the outside of the ear using a 40× objective and a 10× eyepiece (400× total). The measurements were taken from the basal side of the basal layer (basement membrane) to the outer side of the last nucleated cell of the […]. The average of the 10 measurements expressed in microns was entered in the table.
Determination of dermal thickness was performed using a similar technique. To avoid variability caused by the difference in sizes between the base and tip of the ear, only 3 measurements were performed in the center of the sample. The measurements were performed from the basement membrane of the external and internal epithelial and therefore include, in addition to both dermis (external and internal), the cartilage.
Cellularity of the dermis was calculated by projecting a calibrated grid into the dermis and counting cells in the known area of the dermis. Areas of hair follicles or sebaceous glands were avoided. Five fields were counted and the results were adjusted to the number of cells in 1,000 square microns.
The results of individual animals were entered in the table and the averages and standard deviation were calculated using an EXCEL database. In addition, the results were also expressed as a percentage of the control (acetone treated). Furthermore, the percentage of inhibition of the test articles were calculated using the following formula: [formula]

CCCCCCCCCCCCS(=O)(=O)c1ccc(O)c(C(=O)Nc2cccc(C(F)(F)F)c2)c1 [TMF-12]
MPO Activity (myeloperoxidase (MPO); TMF-12 0.8 mg/20 ml): 590.2 D OD/min | MPO Activity (myeloperoxidase (MPO); TMF-12 1.24 mg/20 ml): 327.3 D OD/min | MPO Activity (myeloperoxidase (MPO); TMF-12 8 mg/20 ml): 56.5 D OD/min | MPO Activity (myeloperoxidase (MPO); TMF-12 12.4 mg/20 ml): 54.8 D OD/min | MPO Activity (myeloperoxidase (MPO); TMF-12 80 mg/20 ml): 27.6 D OD/min | MPO Activity (myeloperoxidase (MPO); TMF-12 124 mg/20 ml): 21 D OD/min | Dose inhibiting MPO increase, fold less than dose inhibiting edema (myeloperoxidase (MPO); compared with edema inhibition): approximately 10 fold | solubility ([1]; +0.5% tween 80): 1340 µg/mL | solubility ([1]; +1% sls): 1660 µg/mL | solubility ([1]; +1.5% tween 80): 4290 µg/mL | solubility ([1]; +2% SLS + 0.5% Tween 80): 3540 µg/mL | solubility ([1]; +2% SLS + 1.0% Tween 80): 4010 µg/mL | solubility ([1]; +2% SLS + 2.0% Tween 80): 5860 µg/mL | solubility ([1]; +2% sls): 2930 µg/mL | solubility ([1]; +3.0% tween 80): 8340 µg/mL | solubility ([1]; +4% sls): 5740 µg/mL | solubility ([1]; aqueous buffer, pH 10 Na-buffer @ 22° C.): < 0.1 µg/mL | Solubility in anionic and nonionic surfactant solutions relative to AMCF3-8 ([1]; compared with AMCF3-8): greater solubility than AMCF3-8 | solubility ([1]; organic solvent or mixture, Ethanol, 22° C.): 13600 µg/mL | solubility ([1]; organic solvent or mixture, Propylene Glycol @ 20° C.): 6660 µg/mL | solubility ([1]; ph 10 na-buffer +0.5% sls, pH 10 Na-buffer @ 22° C. +0.5% SLS): 1280 µg/mL | Illness or deaths [2]: No illness or deaths occurred | % Inhibition, Dermal Cellularity ([3]; 1.25 mg/ear): 24.6% | % Inhibition, Epidermal Thickness ([3]; 1.25 mg/ear): 48.0% | % Inhibition, Dermal Cellularity ([3]; 2.50 mg/ear): 64.3% | % Inhibition, Epidermal Thickness ([3]; 2.50 mg/ear): 11.4% | % Inhibition, Dermal Cellularity ([3]; 5.00 mg/ear): 47.6% | % Inhibition, Epidermal Thickness ([3]; 5.00 mg/ear): 30.0% | Blood vessel prominence (in words) ([3]; histopathology): Blood vessels were not as prominent | Cellularity of the dermis (in words) ([3]; histopathology, FIG. 1): reduced the epidermal thickness as well as the cellularity of the dermis | Epidermal thickness (in words) ([3]; histopathology, FIG. 1): reduced the epidermal thickness
